Values joined by “and” are separate entries in the source; they are usually repeats but may differ in a detail not shown here. Equal entries are not always repeated.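 Method: 48-hour compound exposure of cells in 96-well plates, five concentrations, linear interpolation of endpoints. GI50: concentration for 50% inhibition of growth. TGI denotes the concentration required for complete inhibition of growth.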 Active and inactive are the calls of the source. Rule as the data show it: active = GI50 below about 0.43 µM; inactive = the rest.

Data on 37 molecules can be found in PubChem BioAssay (NCI).

Common to all, as to test: NCI anticancer screen, dose series, 48 h
The test system of assay [1] is BT-549 breast.
Assay [2] relates to HT29 colon.
In assay [3] the test system is K-562 leukemia.
For assay [4], the system named is MDA-MB-231 breast.
Assay [5] concerns MOLT-4 leukemia.
Assay [6] concerns OVCAR-3 ovarian.
Assay [7] relates to SN12C renal.
Assay [8] deals with SR leukemia.

`CC(=O)c1ccc2c3c1O[C@H]1c4[nH]c5ccccc5c4C[C@@]4(O)[C@@H](C2)N(CC2CC2)CC[C@]314`: the TGI was determined as 29.6 µM in assay [1]; 20 µM in assay [2]; 41.3 µM in assay [3]; 25.7 µM in assay [4]; 47.6 µM in assay [5]; 23.4 µM in assay [6]. The molecule further showed a TGI in assay [7] of 34.4 µM.

For `COc1ccc(C2=NNC(c3cc4cc(Br)ccc4nc3Cl)C2)cc1` (stereo unspecified), the TGI in assay [1], in assay [2], in assay [3], in assay [5], in assay [6] and in assay [7] was over 25 µM throughout. Moreover, the TGI in assay [8] is over 25 µM.

Regarding `CC1=NN(C(=O)Cc2ccccc2)C(=O)/C1=C\c1ccccc1O`, the TGI in assay [2], in assay [3], in assay [5], in assay [6] and in assay [7] was over 100 µM each time.

As for `CC1=CC(=O)/C(=C/n2c(=S)[nH]c3cc(C)ccc32)C(=O)O1`, the TGI in assay [1], in assay [2], in assay [4], in assay [5], in assay [6] and in assay [7] was over 100 µM each time.

For `C[C@]12CC[C@H](O)CC1=CC[C@@H]1[C@@H]2CC[C@]2(C)C(=O)/C(=C/c3ccc([N+](=O)[O-])cc3)C[C@@H]12`, the TGI in assay [1] is 57.5 µM; in assay [2], over 100 µM; in assay [3], over 100 µM; in assay [5], over 100 µM; in assay [6], 33.8 µM; in assay [7], 33 µM. Further, in assay [8], the TGI was over 100 µM.

Consider `O=C1CCC2(c3ccc(Cl)cc3)Nc3ncncc3N12` (stereo unspecified), for which the TGI in assay [1], in assay [2], in assay [3], in assay [5], in assay [6] and in assay [7] was over 10 µM each time.

For the molecule `COc1cc2[nH]c(=O)c3cc(C)cc4c(Cl)nc(c1OC)c2c43`, the TGI in assay [1], in assay [2], in assay [3], in assay [4], in assay [5] and in assay [6] was over 100 µM in each case.

In the case of `Cn1c(COC(=O)NC2CCCCC2)c(COC(=O)NC2CCCCC2)c2ccc3cc(C=O)ccc3c21`, the TGI in assay [1], in assay [2], in assay [3], in assay [4], in assay [5] and in assay [6] was over 100 µM in each case. The molecule also displayed a TGI in assay [7] of over 100 µM.

For `CO[C@]12CC(=O)C3(C(C[C@H]4CC5CC[C@H]6C[C@@H](OC(C)=O)CC[C@]6(OC(C)=O)C5C[C@@]43C)C1)C1C[C@H]3[C@@H]4CC[C@H]5C[C@@H](OC(C)=O)CC[C@]5(OC(C)=O)[C@H]4CC[C@]3(C)C12` (stereo partly specified), the TGI in assay [2], in assay [3], in assay [4], in assay [5], in assay [6] and in assay [7] was over 100 µM throughout. Further, the TGI in assay [8] is over 100 µM.

With `Cc1c2oc3c(C)cc(F)c(C(=O)NC4C(=O)NC(C(C)C)C(=O)N5CCCC5C(=O)N(C)CC(=O)N(C)C(C(C)C)C(=O)OC4C)c3nc-2c(C(=O)NC2C(=O)NC(C(C)C)C(=O)N3CCCC3C(=O)N(C)CC(=O)N(C)C(C(C)C)C(=O)OC2C)c(N)c1=O` (stereo unspecified), the GI50 was 0.0186 µM in assay [4] and 0.171 µM in assay [6]. The TGI in assay [4] is 6.8 µM and 2.45 µM; in assay [5], 0.00545 µM; in assay [7], over 100 µM.

`Cc1c2cccc-2c(OCCOC(=O)n2ccnc2)cc2c1[nH]c1ccccc12`: the TGI in assay [1] was 9.06 µM; in assay [2] it was 5.22 µM; in assay [3] it was 21.7 µM; in assay [5], 25.2 µM; in assay [6], 4.64 µM; in assay [7], 5.89 µM. For the same molecule, the TGI in assay [8] is over 100 µM.

For the molecule `O=Cc1c(Br)[nH]c2ccccc12`, the TGI in assay [2] was over 100 µM; in assay [3] it was over 100 µM; in assay [5] it was over 72.6 µM; in assay [6], over 100 µM; in assay [7], over 100 µM.

Turning to `COc1cc(S(=O)(=O)Nc2ccc(-c3csc(N4C(=O)C(C)SC4c4ccccc4)n3)cc2)ccc1Cl` (stereo unspecified), the TGI in assay [1], in assay [2], in assay [3], in assay [5], in assay [6] and in assay [7] was over 100 µM throughout. Further, in assay [8], the TGI is over 100 µM.

As to `Cc1ccc2c(=O)cc(Cc3csc4ccccc34)[nH]c2n1`, the TGI in assay [1] is 66.4 µM; in assay [2] it was over 100 µM; in assay [3], over 100 µM; in assay [4] it was over 100 µM; in assay [5], over 100 µM; in assay [6], over 100 µM. This molecule yielded a TGI in assay [7] of over 100 µM.

With `COc1cc2c(c(OC)c1OC)-c1ccc(SC)c(=O)cc1[C@@H](NC(=O)c1ccc([N+](=O)[O-])cc1)CC2`, the GI50 in assay [2] was under 0.0025 µM. Further, the TGI is 25 µM and > 100 µM in assay [3]; 0.00595 µM in assay [6]; 25 µM and > 100 µM in assay [7]; 25 µM and > 100 µM in assay [8].

For the molecule `O=C(CSCC(=O)N/N=C\c1ccccc1F)N/N=C\c1ccccc1F`, the TGI in assay [2], in assay [4], in assay [5], in assay [6] and in assay [7] was over 100 µM in each case.

With `Cc1ccc(N=C2SC(=NN(C)C)SC2=Nc2ccc(C)cc2)cc1`, the TGI in assay [2], in assay [3], in assay [4], in assay [5], in assay [7] and in assay [8] was over 100 µM throughout.

Turning to `C[N+](C)(C)CC(=O)N/N=C(/Cc1nc2ccc([N+](=O)[O-])cc2[nH]c1=O)C(=O)Nc1cc(C(F)(F)F)ccc1Cl`, the TGI in assay [2], in assay [3], in assay [5], in assay [6], in assay [7] and in assay [8] was over 100 µM in each case.

For the molecule `O=NN1C(c2ccccc2)CCCC1c1ccccc1` (stereo unspecified), the TGI in assay [2] is over 54.8 µM; in assay [3], over 100 µM; in assay [5], over 100 µM; in assay [6] it was over 100 µM; in assay [7], over 100 µM.

Consider `O=c1[nH]c(=O)n(COCc2ccccc2)c2ccccc12`, for which the TGI in assay [2], in assay [3], in assay [4], in assay [5], in assay [6] and in assay [7] was over 100 µM each time. The TGI in assay [8] is over 100 µM.

In the case of `O=C1C=C(O)c2c(O)ccc(O)c2C1=O`, the TGI in assay [1], in assay [2], in assay [3], in assay [4], in assay [5] and in assay [6] was over 100 µM throughout.

Consider `N#CCc1nc2cc(C(F)(F)F)ccc2s1`, for which the TGI in assay [1] is over 100 µM; in assay [2] it was over 100 µM; in assay [4], over 100 µM; in assay [5], over 100 µM; in assay [6], 75.8 µM; in assay [7], over 100 µM.

Regarding `O=C(c1ccccc1O)c1cc(-c2ncc3c(=O)c4ccccc4oc3n2)c(-c2ccccc2O)[nH]c1=O`, the TGI in assay [2] was found to be 77.6 µM; in assay [3], 75.1 µM; in assay [5] it was 61.9 µM; in assay [6] it was 62.4 µM; in assay [7], 63.7 µM.

Take `COc1ccc(CCCN2c3ccccc3Sc3ccccc32)cc1`: the TGI in assay [2], in assay [3], in assay [5] and in assay [7] was over 100 µM each time.

Consider `Cc1ccc(C#CS(=O)(=O)C(F)(F)F)cc1`, for which the TGI in assay [2], in assay [3], in assay [5], in assay [6] and in assay [7] was over 100 µM throughout.

On to `COc1ccc(C2=C(Cl)c3cc(OC)c(OC)cc3C2)cc1OC`, for which the TGI in assay [2], in assay [3], in assay [5], in assay [7] and in assay [8] was over 100 µM each time.

`NCCS(=O)(=O)O`: the TGI in assay [2], in assay [3], in assay [4], in assay [5], in assay [6] and in assay [7] was over 100 µM throughout. Moreover, the TGI in assay [8] is over 100 µM.

Turning to `CN1C=COC1N=C1CCCCC1` (stereo unspecified), the TGI in assay [2], in assay [3], in assay [4], in assay [5], in assay [6] and in assay [7] was over 100 µM each time. This molecule also came in with a TGI in assay [8] of over 100 µM.

As for `O=S1(=O)OCCCOS(=O)(=O)C1(Br)Br`, the TGI in assay [1], in assay [2], in assay [5], in assay [6], in assay [7] and in assay [8] was over 100 µM each time.

On to `COc1cc([C@@H]2c3cc4c(cc3[C@@H](c3c(O)cc(O)c5c3O[C@H](c3ccc(O)c(O)c3)[C@H](OC(=O)c3cc(O)c(O)c(O)c3)C5)[C@H]3COC(=O)[C@H]23)OCO4)cc(OC)c1O`, for which the TGI is over 100 µM in assay [1]; 65.3 µM in assay [2]; over 100 µM in assay [4]; over 100 µM in assay [5]; over 100 µM in assay [6]; over 100 µM in assay [7].

With `COc1cc(/C(=C2/O[C@@H]([C@H]3COC(C)(C)O3)[C@H]3OC(C)(C)O[C@@H]23)c2ccc3c(c2)OCO3)cc(OC)c1OC`, the GI50 was over 25 µM in assay [2]; over 25 µM in assay [3]; over 25 µM in assay [4]; over 25 µM in assay [5]; over 25 µM in assay [6]; 18.8 µM in assay [7]. The GI50 in assay [8] was over 25 µM. Moreover, the TGI in assay [2], in assay [3], in assay [4], in assay [5], in assay [6] and in assay [7] was over 25 µM throughout. The molecule also yielded a TGI in assay [8] of over 25 µM.

For `N#Cc1c(N2CCCC2)nsc1Nc1ccc(F)cc1`, the TGI in assay [2], in assay [3], in assay [4], in assay [5], in assay [6] and in assay [7] was over 100 µM each time. This molecule returned a TGI in assay [8] of over 100 µM.

In the case of `O=S(c1ccc(Cl)cc1)c1ccccc1C1=NCCN1` (stereo unspecified), the TGI in assay [1], in assay [2], in assay [3], in assay [4], in assay [5] and in assay [6] was over 100 µM each time. The same molecule had a TGI in assay [7] of over 100 µM.

Regarding `COc1ccc([C@H]2c3cc4c(cc3OC(O)(CO)[C@H]2C(=O)O)OCO4)c(OC)c1` (stereo partly specified) (tested in a mixture with another compound), the TGI in assay [2], in assay [3], in assay [5], in assay [6], in assay [7] and in assay [8] was over 100 µM in each case.

For the molecule `O=P(O)(O)CN1CCNCCN(CP(=O)(O)O)CCN(CP(=O)(O)O)CCNCC1`, the GI50 in assay [2] is 49000 µM. In addition, the result in assay [4], in assay [5] and in assay [7] was inactive.

Take `COc1cc2c(c(OC)c1OC)-c1ccc(SC)c(=O)cc1[C@@H](NCc1cccc([N+](=O)[O-])c1)CC2`: the TGI in assay [2] was under 0.01 µM; in assay [3] it was 2.39 µM; in assay [5], over 100 µM; in assay [6], under 0.01 µM; in assay [7], over 100 µM; in assay [8], over 100 µM.

Take `O=c1[nH]nc(Cc2ccc(Cl)cc2)n1/N=C/c1c[nH]c2ccccc12`: the TGI in assay [2], in assay [3], in assay [4], in assay [5], in assay [6] and in assay [7] was over 100 µM throughout. In assay [8], the TGI is over 100 µM.
